Drawing on patent US8796460B2, “Compounds for inhibiting KSP kinesin activity” (Mercky Sharp & Dohme Corp., priority 2007, dated 2014), this text covers EC50 for six compounds.

Like-named read-outs stand apart in the source and are kept apart here. Where only a bound is given, the exact number is not on record here.

The assay concerns HCT116 colon cancer cells. The assay can be described thus: KSP Cellular Assay (percent of cells staining positive for Phos-Histone H3 / Phos-MPM2). The format is cell-based. The settings on record: Homo sapiens, read-out: EC50 (nM) Range. The essentials: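 HCT116 cells treated with compound for 16 hours, fixed and stained with Hoechst plus Phos-Histone H3 (ser10) and Phos-MPM2 antibodies. Percent positive cells from immunofluorescence imaging; EC50 by sigmoidal nonlinear regression over 8-point dilutions in duplicate.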

[1] abbreviates: HCT-116, 16 h, table of Example 2901, HCT116 cells, 16 hours with drug.

Consider `CC(=O)NCC[C@H]1CNc2ccccc2[C@]12SC(c1cc(F)ccc1F)=NN2C(C)=O` [compound 2702], for which the concentration giving a half-maximal response (EC50) (HCT-116, 16 h, table of Example 2701, HCT116 cells, 16 hours with drug) was in the range of 500 to 1000 nM. For the compound `CC(=O)N1N=C(c2cc(F)ccc2F)S[C@]12c1ccccc1NC[C@H]2CCN` [compound 2801], for the setting “HCT-116, 16 h, table of Example 2801, HCT116 cells, 16 hours with drug”, the half-maximal effective concentration (EC50) is not above 500 nM. As for `CC(=O)N1N=C(c2cc(F)ccc2F)S[C@@]12c1cc(F)ccc1NC[C@H]2CCN` [compound 2902], the EC50 under setting [1] was not above 500 nM. On to `CC(=O)N1N=C(c2cc(F)ccc2F)S[C@]12c1cc(F)ccc1NC[C@H]2CCN` [compound 2903], for which the EC50 under setting [1] is not above 500 nM.

For `CC(=O)N1N=C(c2cc(F)ccc2F)S[C@]12c1cc(F)ccc1NC[C@@H]2CCN` [compound 2904], under setting [1], the EC50 is more than 1000 nM. As to `Fc1ccc(F)c(C2=NN3CCC4CNc5ccccc5C43S2)c1` (stereo not drawn) [compound 3101], the EC50 (HCT-116) is more than 1000 nM.

What is called EC50 is the midpoint of the concentration-response curve.
